# Measured values taken from patent US20250120980A1, “DIBENZ[…] AND USE IN […] PROTEIN AGONISTS THEREOF” (priority 2023, published 2025).
# Where “and” joins values, the source holds several entries; their conditions need not be identical. Identical values can stand only once.
# Experiments:
# Assay type in all cases: cell-based
# [1] = system: VSV-GFP (vesicular stomatitis virus)
# IAV (influenza virus) = system: IAV (influenza virus)
# [2] = system: PRV-GFP (porcine pseudorabies virus)
# [3] = system: STING pathway (IFNb gene expression) in L929 mouse epithelial-like fibroblasts
structure (smiles),measurement,setting,value
"Cc1ccc2c(c1C)Nc1ccccc1CC2=O [Compound 11, 6,7-dimethyl-5,11-dihydro-10H-dibenzo[b,f]aza-10-one]","Infection Rate, VSV-GFP",[1],40% and 31.1% and 33.7%
same,proportion of VSV-GF infected cells (in words),[1],significantly reduced
same,M1 (M gene of influenza virus) Ct value,IAV (influenza virus),18.71 and 18.62 and 18.68
same,"Infection Rate, PRV-GFP",[2],13.1% and 14.2% and 13.5%
same,proportion of PRV-GFP infected cells (in words),[2],significantly reduced
"Cc1ccc2c(c1C)Nc1cc(F)ccc1CC2=O [Compound 13, 3-fluoro-6,7-dimethyl-5,11-dihydro-10H-dibenzo[b,f]aza-10-one]","Infection Rate, VSV-GFP",[1],94.3% and 92.7% and 92.1%
same,proportion of VSV-GF infected cells (in words),[1],significantly reduced
same,IFNb mRNA expression 2-^ΔΔCt value,[3],2.97 and 2.37 and 2.48 and 3.34
same,M1 (M gene of influenza virus) Ct value,IAV (influenza virus),19.45 and 20.25 and 19.66
same,"Infection Rate, PRV-GFP",[2],7.06% and 8.55% and 7.42%
same,proportion of PRV-GFP infected cells (in words),[2],significantly reduced
"O=C1Cc2ccccc2Nc2ccccc21 [Compound 14, 5,11-dihydro-10H-dibenzo[b,f]aza-10-one]","Infection Rate, VSV-GFP",[1],76.1% and 66.5% and 65.8%
same,proportion of VSV-GF infected cells (in words),[1],significantly reduced
same,M1 (M gene of influenza virus) Ct value,IAV (influenza virus),18.99 and 19.52 and 19.69
same,"Infection Rate, PRV-GFP",[2],17.1% and 19.5% and 19.8%
same,proportion of PRV-GFP infected cells (in words),[2],significantly reduced
"O=C1Cc2ccccc2Nc2c(Cl)cccc21 [Compound 15, 6-chloro-5,11-dihydro-10H-dibenzo[b,f]aza-10-one]",IFNb mRNA expression 2-^ΔΔCt value,[3],1.61
"COc1ccc2c(c1)C(=O)Cc1ccccc1N2 [Compound 17, 8-methoxy-5,11-dihydro-10H-dibenzo[b,f]aza-10-one]",IFNb mRNA expression 2-^ΔΔCt value,[3],1.54
"COc1ccc2c(c1)Nc1c(ccc(C)c1C)C(=O)C2 [Compound 18, 3-methoxy-6,7-dimethyl-5,11-dihydro-10H-dibenzo[b,f]aza-10-one]","Infection Rate, VSV-GFP",[1],13.9% and 12.5% and 12.9%
same,proportion of VSV-GF infected cells (in words),[1],significantly reduced
same,IFNb mRNA expression 2-^ΔΔCt value,[3],8.76 and 6.92 and 6.07 and 5.62
same,M1 (M gene of influenza virus) Ct value,IAV (influenza virus),19.52 and 19.47 and 19.51
same,"Infection Rate, PRV-GFP",[2],18.3% and 18.1%
same,proportion of PRV-GFP infected cells (in words),[2],significantly reduced
"COc1ccc2c(c1)CC(=O)c1ccc(C)c(C)c1N2 [Compound 19, 2-methoxy-6,7-dimethyl-5,11-dihydro-10H-dibenzo[b,f]aza-10-one]","Infection Rate, VSV-GFP",[1],99% and 91.1% and 90.5%
same,proportion of VSV-GF infected cells (in words),[1],significantly reduced
same,M1 (M gene of influenza virus) Ct value,IAV (influenza virus),21.37 and 21.39 and 21.49
same,"Infection Rate, PRV-GFP",[2],51% and 55.7% and 50.2%
same,proportion of PRV-GFP infected cells (in words),[2],significantly reduced
